Patent US9187458B2, “Cyanoquinoline derivatives” (Tianjin Hemay Bio-Tech Co., LTD., priority 2010, dated 2015)

Legend:
AsPC-1 cells = test: AsPC-1 Cell Growth Inhibition Test (MTT Assay); format: cell-based; details: Homo sapiens, ASPC1, 72 h incubation
Description: AsPC-1 Cell Growth Inhibition Test (MTT Assay)
Cell strains: AsPC-1 (human pancreatic cancer cell strains);
(§1) 1. A plate (10 cm) of cells in logarithmic growth phase normally cultured was collected;
(§2) 2. The culture solution was sucked out. The plate was washed with 5 ml of PBS 1-2 times;
(§3) 3. PBS was sucked out. 1.5 ml of 0.25% pancreatin was added to infiltrate the cells for 1 min;
4. The pancreatin was sucked out. The culture plate was placed in an incubator. Digestion was carried out for about 7.5 min at 37° C.;
(§4) 5. 4.5 ml of complete culture solution was added to the culture plate to stop the digestion. The cells were carefully scoured with micropipette (1 ml) to give a uniform cell suspension. The suspension was implanted into a 96-well cell culture plate by 8000 cells/100 μl per well. The culture plate was incubated overnight under 5% CO2 at 37° C. In day 2, 100 μl of culture solution comprising a compound was added in each well, and further incubated for 72 h under 5% CO2 at 37° C.
(§5) 6. The culture solution was sucked out;
(§6) 7. 100 μl of serum-free culture solution containing 0.5 mg/ml MTT was added in each well, and incubated for 3 h;
(§7) 8. The culture solution was carefully sucked out;
(§8) 9. 100 μl of DMSO was added in each welland vibrated to dissolve;
(§9) 10. OD values were determined at 490 nM.
(§10) 1. Calculation of Relative Inhibition Ratio The inhibition ratio of a compound on cell growth=(PC−n)/(PC−NC)×100%
(§11) IC50: Concentration of a compound where inhibition ratio was 50%. IC50 values were fitted with Origin7.5.

Fadu cells = test: Fadu Cell Growth Inhibition Test (MTT Assay); format: cell-based; details: Homo sapiens, 72 h incubation
Description: Fadu Cell Growth Inhibition Test (MTT Assay)
Cell strains: Fudu (human head and neck cancer cell strains);
Culture medium: 90% EMEM+10% FBS;
as §1, §2, §3
(§12) 4. The pancreatin was sucked out. The culture plate was placed in an incubator. Digestion was carried out for about 5 min at 37° C.;
as §4, with “6000” for “8000”
as §5, §6, §7, §8, §9, §10, §11

CCRF-CEM/T cells = test: CCRF-CEM/T Cell Growth Inhibition Test (MTT Assay); format: cell-based; details: Homo sapiens, CCRF-CEM/T cells (resistant to paclitaxel), 72 h incubation
Description: CCRF-CEM/T Cell Growth Inhibition Test (MTT Assay)
Cell strains: CCRF-CEM/T (human acute lymphocytic cell leukemia cells);
triple lysate solution: 10% SDS, 5% isobutanol, 0.012M HCl.
1. Cells were cultured to exponential phase. The cells were suspension cells;
2. The cells were collected by centrifuge. The resulting cells were resuspended in a complete culture medium to a desired concentration. The cells suspension was implanted into a 96-well cell culture plate by 20000 cells per well. A compound was added in the wellsuch that the final volume of the system was 120 μl. The system was further incubated for 72 h under 5% CO2 at 37° C.
7. 30 μl of serum-free culture solution containing 2.5 mg/ml MTT was added in each well, and incubated for 3 h;
8. 150 μl of triple lysate solution was added in each well and placed to dissolve at the room temperature;
9. OD values were determined at 570 nM.
as §10, §11

SK-OV-3 cells = test: SK-OV-3 Cell Growth Inhibition Test (MTT Assay); format: cell-based; details: Homo sapiens, 72 h incubation
Description: SK-OV-3 Cell Growth Inhibition Test (MTT Assay)
Cell strains: SK-OV-3 (human ovarian cancer cell strains);
Culture medium: 90% McCoy's 5A+10% FBS;
as §1, §2, §3, §12
as §4, with “stop the digestion.T the cells were” for “stop the digestion. The cells were”, “cell culture disc by 4000” for “cell culture plate by 8000”, “disc by 4000 cells/100 μl” for “plate by 8000 cells/100 μl”
as §5, §6, §7
(§13) 9. 100 μl of DMSO was added in each well and vibrated to dissolve;
as §9, §10, §11

LoVo cells = test: LoVo Cell Growth Inhibition Test (MTT Assay); format: cell-based; details: Homo sapiens, 72 h incubation
Description: LoVo Cell Growth Inhibition Test (MTT Assay)
1. Cell strains: LoVo (human intestinal cancer cell strains);
as §1, §2
(§14) 3. PBS was sucked out. 2 ml of 0.25% pancreatin was added to infiltrate the cells for 1 min;
4. The pancreatin was sucked out. The culture plate was placed in an incubator. Digestion was carried out for about 4 min at 37° C.;
as §4, with “5. 4” for “5. 4.5”, “added in” for “added to”, “by 3000-4000” for “by 8000”, “added into” for “added in”
as §5
7. 100 μl of serum-free culture solution containing 0.5 mg/ml MTT was added in each well, and incubated for 4 h;
as §7, §13, §9, §10, §11

A549 cells = test: A549 Cell Growth Inhibition Test (MTT Assay); format: cell-based; details: Homo sapiens, 72 h incubation
Description: A549 Cell Growth Inhibition Test (MTT Assay)
1. Cell strains: […] (human lung caner cell strains);
Culture medium: 90% F12K+10% FBS;
as §1
2. The culture solution was sucked out. Tthe plate was washed with 5 ml of PBS 1-2 times;
as §14
(§15) 4. The pancreatin was sucked out. The culture plate was placed in an incubator. Digestion was carried out for about 2 min at 37° C.;
as §4, with “4” for “4.5”, “2500” for “8000”
as §5, §6, §7, §13, §9, §10, §11

Sk-Br-3 cells = test: Sk-Br-3 Cell Growth Inhibition Test (SRB Assay); format: cell-based; details: Homo sapiens, 91 h incubation
Description: Sk-Br-3 Cell Growth Inhibition Test (SRB Assay)
1. Cell strains: Sk-Br-3 (human breast cancer cell strains);
2. SRB: available from Sigmaaldrich, goods number: S9012, lot number: 047K3751. SRB was reserved at the room temperature. 0.4% (w/v) of working solution was formulated with 1% of glacial acetic acid. The solution was reserved at 4° C.; anti-tumor compounds; DMSO
Culture medium: 90% DMEM+10% FBS;
1. A plate (10 cm) of cells in logarithmic growth phase normally cultured was collected. The culture solution was sucked out. The plate was washed with 5 mL of PBS 1-2 times;
2. PBS was sucked out. […] of 0.25% pancreatin was added to infiltrate the cells for 30 s;
3. The pancreatin was sucked out. The culture plate was placed in an incubator. Digestion was carried out for about 1.5-2 min at 37° C.;
4. 4 mL of complete culture solution was added to the culture plate to stop the digestion. The cells were carefully scoured with micropipette (1 ml) to give a uniform single cell suspension;
5. Cell suspension was counted. The suspension was diluted to 1×10^5/ml. The resulting suspension was developed uniformly on a plate by 10000 cells/100 μl per well. The culture plate was incubated overnight under 5% CO2 at 37° C. In day 2, 100 μl of culture solution comprising a compound was added in each well, and further incubated for 91 h under 5% CO2 at 37° C.
6. The culture solution was sucked out. 100 uL of TCA fixed cells which were diluted to 10% were added to each well. The plate was kept in a refrigerator for 1 h at 4° C.
7. TCA stationary liquid was sucked out. Each well was washed with 150 μL of ddH2O five times;
8. After the stationary liquid was cleansed, the plate was dried in the air at the room temperature;
9. 60 μL of SRB staining solution was added in each well. The well was stained for 15 min at the room temperature;
10. The SRB staining solution was sucked out. Each well was washed with 150 μL of 1% glacial acetic acid five times;
11. After the SRB staining solution was cleansed, the plate was dried in the air at the room temperature;
12. 100 μL of 10 mM Tris was added in each well. The plate was vibrated to dissolve out SRB;
13. OD values were determined at 570 nM.
To: OD values of the starting content of cells when the cells were developed on a plate;
PC: OD values of cells after normal growth in control wells without a compound;
Ti: OD values of cells after growth in test wells with a compound;
NC: Background OD values of blank well without a compound and cells
Therefore: Ratio of cells in test wells to normal wells (% of control cell growth)=(Ti−To)/(PC−To)×100%
Ratio GI50 was concentration of a compound at the point of 50%.
Therefore: Ratio of killed cells to inoculated cells (% of killed cells)=(Ti−To)/(To−NC)×100%
LC50 was concentration point of a compound when half of the starting inoculated concentration was reached.
Concentration of a compound at this point is defined as TGI (total growth inhibition).

NCI-H460 cells = test: NCI-H460 Cell Growth Inhibition Test (MTT Assay); format: cell-based; details: Homo sapiens, 72 h incubation
Description: NCI-H460 Cell Growth Inhibition Test (MTT Assay)
1. Cell strains: NCI-H460 (human large cell lung cancer cell strains);
as §1, §2, §14, §15
as §4, with “4” for “4.5”, “2500” for “8000”
as §5, §6, §7, §13, §9, §10, §11

Her2 kinase = target: T1, Her2 kinase (Homo sapiens, UniProt P04626); test: Inhibition Activity Assay on Her2 Enzyme (ELISA, PGT substrate); format: biochemical; details: 8 min at 4° C., read-out: Inhibition Activity (EC50) on Her-2
T1 construct: purchased Cell Signaling Tech #7382
Description: Inhibition Activity Assay on Her2 Enzyme
1. Her2 kinase, Cell Signaling Tech, #7382, Lot. 2, reserved at −80° C.;
2. PBST: PBS+0.05% (v/v) Tween 20;
3. Confining liquid: 3% of BSA in PBS;
4. HEPEs buffer (2×): 50 mM HEPEs, 20 mM MgCl2, 0.1 mM MnCl2, 0.2 mM Na3VO4, adjusted to pH of 7.4 with NaOH;
5. PGT, Sigma, Cat#P0275): 2 mg/ml of stock solution was prepared by dissolving PBS, reserved at −20° C.
6. ATP: […] of stock solution was prepared by dissolving ddH2O, reserved at −20° C.;
7. Mice anti-phosphorylation tyrosine-HRP: Invitrogen-037720, 0.5 mg/ml, reserved at 4° C.;
8. TMB: Cell Signaling Tech, Cat #7004L;
9. DTT: 2.5 M of stock solution was prepared with ddH2O, reserved at −20° C. Before use, 2×HEPEs buffer was added in the solution to the final concentration of 1.25 mM.
1. 2 mg/ml of PGT was diluted with PBS to 0.2 mg/ml. 60 μl of the resulting solution was added in each well. The elisa plate was placed in a refrigerator at 4° C. and coated overnight;
2. The coating solution was discarded to stop the coating. The plate was washed four times with PBS, and then beaten to dryness;
3. The elisa plate was placed in a refrigerator at 4° C., drained out and stood for 3h.
4. […] of aqueous solution of each compound was diluted with ddH2O to a desirable concentration. Then, the solution was added in the corresponding elisa well by 25 μl/well;
5. 2 nM of ATP solution was diluted with ddH2O to 25 folds and then sufficiently mixed. The resulting solution was separately added in each elisa well by 25 μl per well (25 μl ddH2O was added in the negative control);
6. Her2 kinase was diluted with 2×TKB to 800 folds. The resulting solution was added in the elisa well by 50 μl per well. Then, the enzyme reaction began. Moreover, the elisa plate was immediately placed in a micro-oscillator. The reaction is carried out for 8 min at the temperature of 4° C.;
7. 2% of SDS was added in the elisa well to stop the reaction by adding 100 μl of SDS in each well. The solution was sufficiently mixed on the micro-oscillator to sufficiently mix for about 5 min;
8. The reaction solution was sucked out. The plate was washed four times with PBST. After the plate was beaten to dryness, 0.25 μg/ml of mice anti-phosphorylation tyrosine-HRP which was diluted with confining liquid was added in the plate by 100 μl per well, and then reacted for 30 min at the room temperature.
9. The antibody reaction solution was sucked out. The plate was washed six times with PBST. After the plate was beaten to dryness, TMB peroxidase substrate was added in the plate with 100 μl/well, and then reacted in the dark for 15 min at the room temperature;
10. 100 μl of 2N H2SO4 was added in the solution to stop the chromogenic reaction. After the bubbles were cleansed, the solution was measured in elisa at 450 nm.
OD values were converted in relative inhibition ratios according to following formula: Relative inhibition ratio=[1−(experiment values−NC mean values)/(PC mean values−NC mean values)]×100%

T1 sequence (P04626 676-1255 limits assumed): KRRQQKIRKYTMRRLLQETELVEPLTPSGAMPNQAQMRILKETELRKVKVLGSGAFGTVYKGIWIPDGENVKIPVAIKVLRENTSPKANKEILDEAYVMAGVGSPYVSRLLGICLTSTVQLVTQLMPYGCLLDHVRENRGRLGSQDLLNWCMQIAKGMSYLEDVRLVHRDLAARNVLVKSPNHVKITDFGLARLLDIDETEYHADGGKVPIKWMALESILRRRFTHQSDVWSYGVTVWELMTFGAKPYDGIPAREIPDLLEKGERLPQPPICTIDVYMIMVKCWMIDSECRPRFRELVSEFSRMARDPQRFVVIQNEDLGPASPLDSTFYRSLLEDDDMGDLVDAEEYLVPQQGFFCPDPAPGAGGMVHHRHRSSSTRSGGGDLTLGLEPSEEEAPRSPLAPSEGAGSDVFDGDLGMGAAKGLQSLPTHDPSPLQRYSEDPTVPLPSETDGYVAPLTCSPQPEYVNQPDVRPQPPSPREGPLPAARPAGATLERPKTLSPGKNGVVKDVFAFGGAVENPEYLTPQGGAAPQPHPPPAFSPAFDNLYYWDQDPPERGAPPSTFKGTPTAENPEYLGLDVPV

| IC50 (AsPC-1 cells) [nM] | IC50 (CCRF-CEM/T cells) [nM] | IC50 (SK-OV-3 cells) [nM] | IC50 (LoVo cells) [nM] | IC50 (A549 cells) [nM] | IC50 (NCI-H460 cells) [nM] | EC50 (Her2 kinase) [nM] | Compound | IC50 (Fadu cells) [nM] | GI50 (Sk-Br-3 cells) [nM] |
| --- | --- | --- | --- | --- | --- | --- | --- | --- | --- |
| 770 | 1800 | 331 | – | – | – | – | CN(C)C/C=C/C(=O)Nc1cc2c(Nc3ccc(OCc4ccccn4)c(Cl)c3)c(C#N)cnc2cc1OC1CCOC1 (stereo not shown) [Example 2, (E)-N-(4-(3-CHLORO-4-(PYRIDIN-2-YL-METHOXY)PHENYLAMINO)-3-CYANO-7-(TETRAHYDROFURAN-3-YL-OXY)QUINOLIN-6-YL)-4-(DIMETHYLAMINO)-BUT-2-ENAMIDE] | 149 | – |
| 1400 | – | – | 1300 | 1500 | 940 | – | CN(C)C/C=C/C(=O)Nc1cc2c(Nc3ccc(OCc4ccc(C(C)(C)C)cc4)c(Cl)c3)c(C#N)cnc2cc1OC1CCOC1 (stereo not shown) [Example 14, (E)-N-(4-(4-(4-TERT-BUTYLBENZYLOXY)-3-CHLOROPHENYLAMINO)-3-CYANO-7-(TETRAHYDROFURAN-3-YL-OXY)QUINOLIN-6-YL)-4-(DIMETHYLAMINO)-BUT-2-ENAMIDE] | – | 924 |
| – | – | – | – | – | – | 291 | N#Cc1cnc2cc(OC3CCOC3)c(NC(=O)C=C3CCNCC3)cc2c1Nc1ccc(F)c(Cl)c1 (stereo not shown) [Example 42, N-(4-(3-CHLORO-4-FLUOROPHENYLAMINO)-3-CYANO-7-(TETRAHYDROFURAN-3-YL-OXY)QUINOLIN-6-YL)-2-(PIPERIDIN-4-YLIDENE)ACETAMIDE] | – | – |
